In data set [1] the test system is SMN2 minigene mRNA (SMN2-A minigene) in HEK293H cells. In words: SMN2 minigene mRNA splicing RT-qPCR assay in cultured cells. In kind it is cell-based, human. To be noted: Homo sapiens, HEK293-H; concentration increasing full length SMN2 mRNA 1.5-fold relative to vehicle-treated cells; HEK293H cells with SMN2-A minigene, 24 hours, 7-point concentration data; read-out: EC1.5x for production of full length SMN2 mRNA. A digest of the protocol: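 HEK293H cells stably carrying the SMN2-A minigene were treated for 24 h at 37 °C with a 7-point, 3.16-fold dilution series of compound. Multiplex RT-qPCR measured exon 7-containing minigene FL mRNA against GAPDH, expressed relative to vehicle by modified ΔΔCt; the EC1.5× is the concentration giving a 1.5-fold increase.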
In general terms: In qPCR the cycle at which signal appears reflects the starting amount.

For data set [2], the system named is Smn protein in SMA patient fibroblast cells (GM03813). In words: Smn protein assay in cultured cells (SMN HTRF). In kind it is cell-based, human. Particulars: SMA patient fibroblast cells, 48 hours; for EC1.5x for Smn protein expression: 7-point concentration curve, SMN HTRF, concentration producing 1.5 times Smn protein vs DMSO vehicle control; for maximum fold (Fold) increase of Smn protein: 7-point concentration data, fold relative to vehicle control. Put shortly:
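SMA patient fibroblasts (5,000 cells/well, DMEM-10% FBS) were treated for 48 h at 37 °C with a 7-point, 3.16-fold dilution series in triplicate. RIPA lysates were probed by HTRF (anti-SMN d2/kryptate, overnight, room temperature), reading 665/620 nm. EC1.5× is the concentration giving 1.5-fold Smn over DMSO vehicle.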
(In general: Time-resolved FRET reads energy transfer from a long-lived donor to a nearby acceptor.)

Turning to `Cc1cn2nc(-c3cc(=O)n4cc(N5CCC6NCCC6C5)ccc4n3)cc2c(C)n1` (stereo not drawn) [Compound 515, 2-(4,6-dimethylpyrazolo[1,5-a]pyrazin-2-yl)-7-(octahydro-5H-pyrrolo[3,2-c]pyridin-5-yl)-4H-pyrido[1,2-a]pyrimidin-4-one], the melting point lay in the range of 198 to 200 °C. In data set [1], the EC (1.5-fold increase) was less than 0.1 µM. In data set [2], the “EC1.5x for Smn protein expression” value is “**** (an EC1.5x≤0.3 μM is indicated by four stars (****))” and the “maximum fold (Fold) increase of Smn protein” value (“maximum fold (Fold) increase” for short) is “***** (a fold increase >1.65 is indicated by five stars (*****))”.
Turning to `O=c1cc(-c2ccc(Cl)cc2)nc2ccc(N3CCNCC3)cn12` [Compound 42, 2-(4-chlorophenyl)-7-(piperazin-1-yl)-4H-pyrido[1,2-a]pyrimidin-4-one], the melting point is 207 to 212 °C. In addition, in data set [1], the EC (1.5-fold increase) lay within 1 to 3 µM. Besides, the “maximum fold (Fold) increase” value in data set [2] is “* (A maximum fold increase of ≤1.2 is indicated by one star (*))”.
With `CCc1cc(C2=CCN(C)CC2)cn2c(=O)cc(-c3ccc(OC)c(OC)c3)nc12` [Compound 415, 2-(3,4-dimethoxyphenyl)-9-ethyl-7-(1-methyl-1,2,3,6-tetrahydropyridin-4-yl)-4H-pyrido[1,2-a]pyrimidin-4-one], the melting point lay within 177 to 182 °C. In data set [1], the EC (1.5-fold increase) was less than 0.1 µM. In addition, the “maximum fold (Fold) increase” value in data set [2] is “*** (a fold increase between >1.35 and ≤1.5 is indicated by three stars (***))”.
Regarding `Cc1cn2cc(-c3cc(=O)n4cc(N5CCNCC5)ccc4n3)cc(C(F)(F)F)c2n1` [Compound 733, 2-[2-methyl-8-(trifluoromethyl)imidazo[1,2-a]pyridin-6-yl]-7-(piperazin-1-yl)-4H-pyrido[1,2-a]pyrimidin-4-one], the melting point fell in the range of 325 to 328 °C. For the same compound, the EC (1.5-fold increase) in data set [1] was less than 0.1 µM. For the same compound, in data set [2], the “EC1.5x for Smn protein expression” value is “**** (an EC1.5x≤0.3 μM is indicated by four stars (****))” and the “maximum fold (Fold) increase” value is reported as “***** (a fold increase >1.65 is indicated by five stars (*****))”.
With `CCN1CCC(c2ccc3nc(-c4ccc5nn(C)cc5c4)cc(=O)n3c2)CC1` [Compound 612, 7-(1-ethylpiperidin-4-yl)-2-(2-methyl-2H-indazol-5-yl)-4H-pyrido[1,2-a]pyrimidin-4-one], the melting point was in the range of 202 to 204 °C. Besides, the EC (1.5-fold increase) in data set [1] was less than 0.1 µM. Further, in data set [2], the “EC1.5x for Smn protein expression” value is reported as “**** (an EC1.5x≤0.3 μM is indicated by four stars (****))” and the “maximum fold (Fold) increase” value was “***** (a fold increase >1.65 is indicated by five stars (*****))”.
Consider `COc1ccc(-c2cc(=O)n3cc(N4C[C@@H]5CN(C(C)C)C[C@@H]5C4)ccc3n2)cc1F` [Compound 281, 2-(3-fluoro-4-methoxyphenyl)-7-[(3aR,6aS)-5-(propan-2-yl)hexahydropyrrolo[3,4-c]pyrrol-2(1H)-yl]-4H-pyrido[1,2-a]pyrimidin-4-one], for which the melting point was in the range of 189 to 192 °C. Further, the EC (1.5-fold increase) in data set [1] is 0.1 to 0.3 µM. In addition, the “maximum fold (Fold) increase” value in data set [2] was “** (a fold increase between >1.2 and ≤1.35 is indicated by two stars (**))”.
With `CCCN1CCN(c2ccc3nc(-c4cc(F)c5nc(C)oc5c4)cc(=O)n3c2)CC1` [Compound 310, 2-(4-fluoro-2-methyl-1,3-benzoxazol-6-yl)-7-(4-propylpiperazin-1-yl)-4H-pyrido[1,2-a]pyrimidin-4-one], the melting point lay in the range of 175 to 178 °C. In addition, the EC (1.5-fold increase) in data set [1] is less than 0.1 µM. In data set [2], the “EC1.5x for Smn protein expression” value is “*** (an EC1.5× between >0.3 μM and ≤1 μM is indicated by three stars (***))”; the “maximum fold (Fold) increase” value was “*** (a fold increase between >1.35 and ≤1.5 is indicated by three stars (***))”.
`Cc1cn2cc(-c3cc(=O)n4cc(N5CCN(CCOCCO)[C@@H](C)C5)ccc4n3)cc(Cl)c2n1` [Compound 534, 2-(8-chloro-2-methylimidazo[1,2-a]pyridin-6-yl)-7-{(3S)-4-[2-(2-hydroxyethoxy)ethyl]-3-methylpiperazin-1-yl}-4H-pyrido[1,2-a]pyrimidin-4-one] registered a melting point of 201 to 205 °C. The EC (1.5-fold increase) in data set [1] is less than 0.1 µM. In data set [2], the “EC1.5x for Smn protein expression” value is on record as “**** (an EC1.5x≤0.3 μM is indicated by four stars (****))” and the “maximum fold (Fold) increase” value is “***** (a fold increase >1.65 is indicated by five stars (*****))”.
Regarding `Cc1nc2ccc(-c3cc(=O)n4cc(N5CCNCC5)ccc4n3)cc2o1` [Compound 133, 2-(2-methyl-1,3-benzoxazol-6-yl)-7-(piperazin-1-yl)-4H-pyrido[1,2-a]pyrimidin-4-one], the melting point was 219 to 222 °C. In addition, in data set [1], the EC (1.5-fold increase) is less than 0.1 µM. In data set [2], the “EC1.5x for Smn protein expression” value is “**** (an EC1.5x≤0.3 μM is indicated by four stars (****))”; the “maximum fold (Fold) increase” value was “**** (a fold increase between >1.5 and ≤1.65 is indicated by four stars (****))”.
For `COc1ccc(-c2cc(=O)n3cc(N4CCC(N(C)C)C4)ccc3c2)cc1F` (stereo not drawn) [Compound 200, 7-[3-(dimethylamino)pyrrolidin-1-yl]-2-(3-fluoro-4-methoxyphenyl)-4H-quinolizin-4-one], the melting point lay within 259 to 261 °C. Moreover, in data set [1], the EC (1.5-fold increase) lay within 1 to 3 µM. Further, the “maximum fold (Fold) increase” value in data set [2] is given as “* (A maximum fold increase of ≤1.2 is indicated by one star (*))”.
The compound `Cc1cn2nc(-c3cc(=O)n4cc(N5CC(N6CCCC6)C5)ccc4n3)cc2c(C)n1` [Compound 759, 2-(4,6-dimethylpyrazolo[1,5-a]pyrazin-2-yl)-7-[3-(pyrrolidin-1-yl)azetidin-1-yl]-4H-pyrido[1,2-a]pyrimidin-4-one] showed a melting point of 235 to 237 °C. In data set [1], the EC (1.5-fold increase) lay in the range of 0.1 to 0.3 µM. In data set [2], the “EC1.5x for Smn protein expression” value is “*** (an EC1.5× between >0.3 μM and ≤1 μM is indicated by three stars (***))”; the “maximum fold (Fold) increase” value is “***** (a fold increase >1.65 is indicated by five stars (*****))”.
`Cc1cn2cc(-c3cc(=O)n4cc(C5CCN(C)CC5)ccc4n3)ccc2n1` [Compound 448, 2-(2-methylimidazo[1,2-a]pyridin-6-yl)-7-(1-methylpiperidin-4-yl)-4H-pyrido[1,2-a]pyrimidin-4-one]: the melting point is 218 to 220 °C. Moreover, in data set [1], the EC (1.5-fold increase) is less than 0.1 µM. In data set [2], the “EC1.5x for Smn protein expression” value was “**** (an EC1.5x≤0.3 μM is indicated by four stars (****))” and the “maximum fold (Fold) increase” value is “***** (a fold increase >1.65 is indicated by five stars (*****))”.
Consider `Cc1cn2cc(-c3cc(=O)n4cc(C5CCN(CCO)CC5)ncc4n3)cc(C)c2n1` [Compound 594, 2-(2,8-dimethylimidazo[1,2-a]pyridin-6-yl)-7-[1-(2-hydroxyethyl)piperidin-4-yl]-4H-pyrazino[1,2-a]pyrimidin-4-one], for which the melting point was in the range of 242 to 244 °C. Besides, the EC (1.5-fold increase) in data set [1] was in the range of 0.1 to 0.3 µM. In data set [2], the “EC1.5x for Smn protein expression” value is “*** (an EC1.5× between >0.3 μM and ≤1 μM is indicated by three stars (***))”; the “maximum fold (Fold) increase” value was “**** (a fold increase between >1.5 and ≤1.65 is indicated by four stars (****))”.

As a reminder, the melting point is the temperature, or range, at which the solid turns liquid.

The values are drawn from patent US11753407B2, “Compounds for treating spinal muscular atrophy” (PTC Therapeutics, Inc., priority 2012, dated 2023).
